Results from patent publication US8741940B2, “Microbicidal composition” (Rohm and Haas Company, priority 2005, dated 2014).
Counter-ions that a name gives are not always drawn. Like-named read-outs stand apart in the source and are kept apart here.

Legend:
Format in all cases: cell-based
[1] = tested on: Escherichia coli (E. coli—ATCC #8739); experiment: Synergy test, microtiter plate high resolution MIC assay, bacterium in M9GY medium; set-up: key to SI (synergy index): SI = Qa/QA + Qb/QB; >1 antagonism, lower SI = greater synergy; Qa (First Component A) / Qb (Second Component B): unit: ppm
Method: (§1) When the sum of Qa/QA and Qb/QB is greater than one, antagonism is indicated. […] The lower the SI, the greater the synergy shown by that particular mixture. The minimum inhibitory concentration (MIC) of a microbicide is the lowest concentration tested under a specific set of conditions that prevents the growth of added microorganisms.
(§2) Synergy tests were conducted using standard microtiter plate assays with media designed for optimal growth of the test microorganism. Minimal salt medium supplemented with 0.2% glucose and 0.1% yeast extract (M9GY medium) was used for testing bacteria; Potato Dextrose Broth (PDB medium) was used for testing yeast and mold. In this method, a wide range of combinations of microbicides and other personal care raw materials was tested by conducting high resolution MIC assays in the presence of various concentrations of BBIT or MBIT. High resolution MICs were determined by adding varying amounts of microbicide to one column of a microtitre plate and doing subsequent […] dilutions using an automated liquid handling system to obtain a series of endpoints ranging from 2 ppm to 10,000 ppm active ingredient.
(§3) The bacteria were used at a concentration of about 5 ×10^6 bacteria per mL and the yeast and mold at 5×10^5 fungi per mL. These microorganisms are representative of natural contaminants in many consumer and industrial applications. […] (yeast and mold) or 30° C. (bacteria).
(§4) In each test, First Component (A) was BBIT and the Second Component (B) was the other commercial microbicide.
(§5) In each test, First Component (A) was MBIT and the Second Component (B) was the other commercial microbicide.

[2] = tested on: Candida albicans (C. albicans—ATCC 10231); experiment: Synergy test, microtiter plate high resolution MIC assay, yeast in PDB medium; set-up: key to SI (synergy index): SI = Qa/QA + Qb/QB; >1 antagonism, lower SI = greater synergy; Qb (Second Component B) / Qa (First Component A): unit: ppm
Method: as §1, §2, §3, §4, §5

[3] = tested on: Aspergillus niger (A. niger—ATCC 16404); experiment: Synergy test, microtiter plate high resolution MIC assay, mold in PDB medium; set-up: key to SI (synergy index): SI = Qa/QA + Qb/QB; >1 antagonism, lower SI = greater synergy; Qb (Second Component B) / Qa (First Component A): unit: ppm
Method: as §1, §2, §3, §4, §5

[4] = A=MBIT, B=Caprylyl glycol, E. coli 8739 - M9GY, 24 hours
[5] = A=MBIT, B=Caprylyl glycol, C. albicans 10231 - PDB, 24 hours
[6] = A=MBIT, B=Caprylyl glycol, A. niger 16404 - PDB, 4 days

SMILES: O=C([O-])CC(O)(CC(=O)[O-])C(=O)[O-].[Na+].[Na+].[Na+] [Sodium citrate]
- Qb (Second Component B) [1]: 20000
- Qb (concentration of second component producing the end point, MIC) [1]: 20000 ppm
- Qb (Second Component B) [2]: 10000
- Qb (concentration of second component producing the end point, MIC) [2]: 10000 ppm
- Qb (Second Component B) [3]: 10000
- Qb (concentration of second component producing the end point, MIC) [3]: 10000 ppm

SMILES: CC(=O)C1C(=O)C=C(C)OC1=O (stereo not drawn) [Dehydroacetic acid, sodium salt]
- SI (synergy index) ([1]; E. coli 8739, M9GY, 24 hours): 1.00
- MIC ([1]; Escherichia coli, ATCC8739, E. coli 8739, M9GY, 24 hours, alone where Qa = 0, otherwise in the mixture, read-out: Qb (concentration of second component producing the end point, MIC)): 20000 µg/mL
- SI (synergy index) ([2]; C. albicans 10231, PDB, 24 hours): 1.00
- MIC ([2]; Candida albicans, ATCC10231, C. albicans 10231, PDB, 24 hours, alone where Qa = 0, otherwise in the mixture, read-out: Qb (concentration of second component producing the end point, MIC)): 40 µg/mL
- SI (synergy index) ([3]; A. niger 16404, PDB, 7 days): 1.00
- MIC ([3]; Aspergillus niger, ATCC16404, 168 h, A. niger 16404, PDB, 7 days, alone where Qa = 0, otherwise in the mixture, read-out: Qb (concentration of second component producing the end point, MIC)): 200 µg/mL

SMILES: CC(C)(C)CC(C)(C)c1ccc(OCCOCC[N+](C)(C)Cc2ccccc2)cc1 [Benzethonium chloride]
- Qb (Second Component B) ([1]; A=MBIT, B=Benzethonium chloride (Hyamine 1622), E. coli 8739 - M9GY, 24 hours): 20
- Qb (Second Component B) ([2]; A=MBIT, B=Benzethonium chloride (Hyamine 1622), C. albicans 10231 - PDB, 24 hours): 4
- Qb (Second Component B) ([3]; A=MBIT, B=Benzethonium chloride (Hyamine 1622), A. niger 16404 - PDB, 4 days): 10

SMILES: CCCCCCC(O)CO (stereo not drawn) [Caprylyl glycol]
- Qb (Second Component B) [1, 4]: 2000
- SI (synergy index) [1, 4]: 1.00
- MIC of the component acting alone (QA / QB) ([1]; E. coli 8739, M9GY, 24 hours, 30° C.): 2000 ppm
- Qb (Second Component B) [2, 5]: 4000
- SI (synergy index) [2, 5]: 1.00
- MIC of the component acting alone (QA / QB) ([2]; C. albicans 10231, PDB, 24 hours, 25° C.): 3000 ppm
- MIC of the component acting alone (QA / QB) ([3]; A. niger 16404, PDB, 7 days, 25° C.): 3000 ppm
- Qb (Second Component B) [3, 6]: 1000
- SI (synergy index) [3, 6]: 1.00

SMILES: CC(=O)C1C(=O)C=C(C)OC1=O (stereo not drawn) [dehydroacetic acid, sodium salt]
- SI ([1]; E. coli 8739 - M9GY, 24 hours, BBIT with SDHA): 1.00
- SI ([2]; C. albicans 10231 - PDB, 24 hours, BBIT with SDHA): 1.00
- SI ([3]; A. niger 16404 - PDB, 7 days, BBIT with SDHA): 1.00
